Measured values published in patent publication US9725445B2, “Cycloalkyl nitrile pyrazolo pyridones as Janus kinase inhibitors” (Merck Sharp & Dohme Corp., priority 2013, dated 2017).
Structures can show the parent of a compound that is named as a salt.

Biological target: JAK1 (Homo sapiens (Human), UniProt P23458)
Assay: Jak biochemical HTRF assay, JAK1
Conditions: HTRF biochemical assay, recombinant GST-tagged catalytic domain; read-out: JAK1 IC50

Chain of JAK1 (P23458 875-1153): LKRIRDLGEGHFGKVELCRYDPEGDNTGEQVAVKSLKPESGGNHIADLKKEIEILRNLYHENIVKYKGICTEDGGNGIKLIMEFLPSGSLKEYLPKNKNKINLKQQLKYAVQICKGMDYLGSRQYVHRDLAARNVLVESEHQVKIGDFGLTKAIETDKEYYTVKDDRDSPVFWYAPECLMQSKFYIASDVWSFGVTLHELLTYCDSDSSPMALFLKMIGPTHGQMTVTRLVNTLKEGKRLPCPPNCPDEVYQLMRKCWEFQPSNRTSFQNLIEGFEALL

Row | IC50 | SMILES
1 | 170 pM | Cc1cc(Nc2nn([C@H]3CCCC[C@@H]3C#N)c3cc[nH]c(=O)c23)ccc1-c1cnn(CCC#N)c1 [Example 15-18, (1S,2S)-2-[3-({4-[1-(2-cyanoethyl)-1H-pyrazol-4-yl]-3-methylphenyl}amino)-4-oxo-4,5-dihydro-1H-pyrazolo[4,3-c]pyridin-1-yl]cyclohexanecarbonitrile]
2 | 160 pM | N#C[C@H]1CCCC[C@@H]1n1nc(Nc2ccc(C(=O)O)cc2)c2c(=O)[nH]ccc21 [Example 16-1, 4-((1-((1S,2S)-2-Cyanocyclohexyl)-4-oxo-4,5-dihydro-1H-pyrazolo[4,3-c]pyridin-3-yl)amino)benzoic acid, HCl]

Biological target: JAK2 (Homo sapiens (Human), UniProt O60674)
Assay: Jak biochemical HTRF assay, JAK2
Conditions: HTRF biochemical assay, recombinant GST-tagged catalytic domain; read-out: JAK2 IC50
Protocol: Jak Biochemical HTRF Assay Protocol
The ability of compounds to inhibit the activity of JAK1, JAK2, JAK3, and Tyk2 was measured using a recombinant purified GST-tagged catalytic domain for each enzyme (Invitrogen JAK1 #M4290, JAK2 #M4290, JAK3 #M4290, Tyk2 #M4290) in an HTRF format biochemical assay. […] The basic assay protocol is as follows: First, 250 nL of diluted compounds in DMSO were dispensed into the wells of a dry 384-well Black plate (Greiner #781076) using a Labcyte Echo 555 acoustic dispenser. Subsequent reagent additions employed an Agilent Bravo. […] After equilibration, 2 μL of 10×ATP in 1× assay buffer was added to initiate the kinase reaction and the plates were shaken and then incubated at room temperature for 120 minutes. […] Plates were shaken and centrifuged and then incubated 60 minutes at room temperature and then read on a Perkin Elmer Envision (λex=337 nm, λem=665 and 615 nm, TRF delay time=20 μs). HTRF signal=10,000*665 nm reading/615 nm reading. After normalization to untreated controls, the percent inhibition of the HTRF signal at each compound concentration was calculated. The plot of percent inhibition versus the log of compound concentration was fit with a 4-parameter dose response equation to calculate IC50 values.
Final Reaction Conditions were:
Examples of the instant invention were evaluated in JAK1 and JAK2 in vitro binding assays.

Chain of JAK2 (O60674 849-1124): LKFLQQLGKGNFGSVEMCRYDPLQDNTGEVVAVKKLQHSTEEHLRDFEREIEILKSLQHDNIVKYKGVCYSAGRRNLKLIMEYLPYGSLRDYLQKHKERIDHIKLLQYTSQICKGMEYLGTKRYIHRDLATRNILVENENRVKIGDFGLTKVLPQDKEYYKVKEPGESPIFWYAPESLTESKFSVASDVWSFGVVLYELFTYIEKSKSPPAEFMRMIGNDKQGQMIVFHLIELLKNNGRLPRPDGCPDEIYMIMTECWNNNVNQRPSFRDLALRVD

Row | SMILES | IC50
3 | N#C[C@H]1CCCC[C@@H]1n1nc(Nc2ccc(C(O)C(F)F)cc2)c2c(=O)[nH]ccc21 (stereo partly drawn) [Example 3-70, (1S,2S)-2-(3-{[4-(2,2-difluoro-1-hydroxyethyl)phenyl]amino}-4-oxo-4,5-dihydro-1H-pyrazolo[4,3-c]pyridin-1-yl)cyclohexanecarbonitrile] | 610 pM
4 | CC(C)NC(c1ccc(Nc2nn([C@H]3CCC[C@@H]3C#N)c3cc[nH]c(=O)c23)cc1)C(F)(F)F (single isomer, unassigned) [Example 3-116, (1S,2S)-2-{4-oxo-3-[(4-{(1S or 1R)-2,2,2-trifluoro-1-[(1-methylethyl)amino]ethyl}phenyl)amino]-4,5-dihydro-1H-pyrazolo[4,3-c]pyridin-1-yl}cyclopentanecarbonitrile] | 200 pM
5 | N#C[C@H]1CCCC[C@@H]1n1nc(Nc2ccc3c(c2)C(O)C2(CCCCC2)S3(=O)=O)c2c(=O)[nH]ccc21 (single isomer, unassigned) [Example 3-174, (1S,2S)-2-(3-{[(3S or 3R)-3-hydroxy-1,1-dioxido-3H-spiro[1-benzothiophene-2,1′-cyclohexan]-5-yl]amino}-4-oxo-4,5-dihydro-1H-pyrazolo[4,3-c]pyridin-1-yl)cyclohexanecarbonitrile] | 490 pM
6 | CC(O)(c1ccc(Nc2nn([C@H]3CCC[C@@H]3C#N)c3cc[nH]c(=O)c23)cc1)C(F)(F)F (single isomer, unassigned) [Example 3-138, (1S,2S)-2-[4-oxo-3-({4-[(1R or 1S)-2,2,2-trifluoro-1-hydroxy-1-methylethyl]phenyl}amino)-4,5-dihydro-1H-pyrazolo[4,3-c]pyridin-1-yl]cyclopentanecarbonitrile] | 660 pM
7 | N#C[C@H]1CCCC[C@@H]1n1nc(Nc2ccc3c(c2)C(O)C2(CCCCC2)S3(=O)=O)c2c(=O)[nH]ccc21 (single isomer, unassigned) [Example 3-175, (1S,2S)-2-(3-{[(3R or 3S)-3-hydroxy-1,1-dioxido-3H-spiro[1-benzothiophene-2,1′-cyclohexan]-5-yl]amino}-4-oxo-4,5-dihydro-1H-pyrazolo[4,3-c]pyridin-1-yl)cyclohexanecarbonitrile] | 260 pM
8 | CC(C)NC(c1ccc(Nc2nn([C@H]3CCC[C@@H]3C#N)c3cc[nH]c(=O)c23)cc1)C(F)(F)F (single isomer, unassigned) [Example 3-115, (1S,2S)-2-{4-oxo-3-[(4-{(1R or 1S)-2,2,2-trifluoro-1-[(1-methylethyl)amino]ethyl}phenyl)amino]-4,5-dihydro-1H-pyrazolo[4,3-c]pyridin-1-yl}cyclopentanecarbonitrile] | 330 pM
9 | CC(C)S(=N)(=O)c1ccc(Nc2nn(C3CCC[C@@H]3C#N)c3cc[nH]c(=O)c23)cc1 (single isomer, unassigned) [Example 3-109, (1S,2S)-2-[3-({4-[(S or R)-S-(1-methylethyl)sulfonimidoyl]phenyl}amino)-4-oxo-4,5-dihydro-1H-pyrazolo[4,3-c]pyridin-1-yl]cyclopentanecarbonitrile] | 470 pM
10 | CC(O)(CCO)c1cc(Nc2nn([C@H]3CCCC[C@@H]3C#N)c3cc[nH]c(=O)c23)ccc1S(C)(=O)=O (stereo partly drawn) [Example 3-86, (1S,2S)-2-(3-{[3-(1,3-dihydroxy-1-methylpropyl)-4-(methylsulfonyl)phenyl]amino}-4-oxo-4,5-dihydro-1H-pyrazolo[4,3-c]pyridin-1-yl)cyclohexanecarbonitrile] | 7600 pM
11 | N#C[C@H]1CCCC[C@@H]1n1nc(Nc2ccc3c(c2)CCNC3)c2c(=O)[nH]ccc21 [Example 3-156, (1S,2S)-2-[4-oxo-3-(1,2,3,4-tetrahydroisoquinolin-6-ylamino)-4,5-dihydro-1H-pyrazolo[4,3-c]pyridin-1-yl]cyclohexanecarbonitrile] | 2600 pM
12 | CC(O)(c1ccc(Nc2nn([C@H]3CCC[C@@H]3C#N)c3cc[nH]c(=O)c23)cc1)C(F)(F)F (single isomer, unassigned) [Example 3-139, (1S,2S)-2-[4-oxo-3-({4-[(1R or 1S)-2,2,2-trifluoro-1-hydroxy-1-methylethyl]phenyl}amino)-4,5-dihydro-1H-pyrazolo[4,3-c]pyridin-1-yl]cyclopentanecarbonitrile] | 350 pM

Results, then the molecule that gave them:

Row | IC50 | SMILES
13 | 2300 pM | Cc1cc(Nc2nn([C@H]3CCCC[C@@H]3C#N)c3cc[nH]c(=O)c23)ccc1-c1cnn(CCC#N)c1 [Example 15-18, (1S,2S)-2-[3-({4-[1-(2-cyanoethyl)-1H-pyrazol-4-yl]-3-methylphenyl}amino)-4-oxo-4,5-dihydro-1H-pyrazolo[4,3-c]pyridin-1-yl]cyclohexanecarbonitrile]
14 | 3400 pM | N#C[C@H]1CCCC[C@@H]1n1nc(Nc2ccc(C(=O)O)cc2)c2c(=O)[nH]ccc21 [Example 16-1, 4-((1-((1S,2S)-2-Cyanocyclohexyl)-4-oxo-4,5-dihydro-1H-pyrazolo[4,3-c]pyridin-3-yl)amino)benzoic acid, HCl]
15 | 21000 pM | CC(C)(C)S(=O)(=O)c1ccc(Nc2nn([C@@H]3CC(F)(F)C[C@@H]3C#N)c3cc[nH]c(=O)c23)cc1 (single isomer, unassigned) [Example 22-2, (1S,2R or 1R,2S)-2-(3-((4-(tert-Butylsulfonyl)phenyl)amino)-4-oxo-4,5-dihydro-1H-pyrazolo[4,3-c]pyridin-1-yl)-4,4-difluorocyclopentanecarbonitrile]
16 | 55000 pM | C[C@H](N[C@H]1CC[C@H](n2nc(Nc3ccc(Cl)c(F)c3)c3c(=O)[nH]ccc32)[C@@H](C#N)C1)C1CC1 [Example 5-6, (1S,2S,5S)-2-(3-((4-chloro-3-fluorophenyl)amino)-4-oxo-4,5-dihydro-1H-pyrazolo[4,3-c]pyridin-1-yl)-5-(((S)-1-cyclopropylethyl)amino)cyclohexanecarbonitrile]
17 | 610 pM | N#C[C@H]1CCCC[C@@H]1n1nc(Nc2ccc(C(O)C(F)F)cc2)c2c(=O)[nH]ccc21 (mixture of isomers) [Example 10-1, Racemic-(1S,2S)-2-(3-((4-(2,2-difluoro-1-hydroxyethyl)phenyl)amino)-4-oxo-4,5-dihydro-1H-pyrazolo[4,3-c]pyridin-1-yl)cyclohexanecarbonitrile]
18 | 113000 pM | C[C@H](N[C@@H]1CC[C@H](n2nc(Nc3ccc(Cl)c(F)c3)c3c(=O)[nH]ccc32)[C@@H](C#N)C1)C1CC1 [Example 5-5, (1S,2S,5R)-2-(3-((4-chloro-3-fluorophenyl)amino)-4-oxo-4,5-dihydro-1H-pyrazolo[4,3-c]pyridin-1-yl)-5-(((S)-1-cyclopropylethyl)amino)cyclohexanecarbonitrile]
19 | 270 pM | CC(C)C(c1ccc(Nc2nn([C@H]3CCCC[C@@H]3C#N)c3cc[nH]c(=O)c23)cc1)n1ccnn1 (single isomer, unassigned) [Example 15-24, (1S,2S)-2-[3-({4-[(1S or 1R)-2-methyl-1-(1H-1,2,3-triazol-1-yl)propyl]phenyl}amino)-4-oxo-4,5-dihydro-1H-pyrazolo[4,3-c]pyridin-1-yl]cyclohexanecarbonitrile]
20 | 17000 pM | CC(C)(C)S(=O)(=O)c1ccc(Nc2nn([C@@H]3CC(F)(F)C[C@H]3C#N)c3cc[nH]c(=O)c23)cc1 (single isomer, unassigned) [Example 22-3, (1R,2R or 1S,2S)-2-(3-{[4-(tert-butylsulfonyl)phenyl]amino}-4-oxo-4,5-dihydro-1H-pyrazolo[4,3-c]pyridin-1-yl)-4,4-difluorocyclopentanecarbonitrile]
21 | 13000 pM | N#C[C@H]1C[C@@H](N2CCC2)CC[C@@H]1n1nc(Nc2ccc(Cl)cc2)c2c(=O)[nH]ccc21 [Example 5-18, (1S,2S,5S)-5-(azetidin-1-yl)-2-(3-((4-chlorophenyl)amino)-4-oxo-4,5-dihydro-1H-pyrazolo[4,3-c]pyridin-1-yl)cyclohexanecarbonitrile]
22 | 3500 pM | CC(C)(C)S(=O)(=O)c1ccc(Nc2nn([C@H]3CC(F)(F)C[C@H]3C#N)c3cc[nH]c(=O)c23)cc1 (single isomer, unassigned) [Example 22-1, (1R,2S or 1S,2R)-2-(3-((4-(tert-Butylsulfonyl)phenyl)amino)-4-oxo-4,5-dihydro-1H-pyrazolo[4,3-c]pyridin-1-yl)-4,4-difluorocyclopentanecarbonitrile]
23 | 250 pM | CC(C)C(c1ccc(Nc2nn([C@H]3CCCC[C@@H]3C#N)c3cc[nH]c(=O)c23)cc1)n1ccnn1 (single isomer, unassigned) [Example 15-23, (1S,2S)-2-[3-({4-[(1R or 1S)-2-methyl-1-(1H-1,2,3-triazol-1-yl)propyl]phenyl}amino)-4-oxo-4,5-dihydro-1H-pyrazolo[4,3-c]pyridin-1-yl]cyclohexanecarbonitrile]
24 | 300 pM | N#C[C@@H]1CCCCC[C@H]1n1nc(Nc2ccc3c(c2)CN(C2CCCC2)C3=O)c2c(=O)[nH]ccc21 (single isomer, unassigned) [Example 15-52, (1R,2R or 1S,2S)-2-{3-[(2-cyclopentyl-1-oxo-2,3-dihydro-1H-isoindol-5-yl)amino]-4-oxo-4,5-dihydro-1H-pyrazolo[4,3-c]pyridin-1-yl}cycloheptanecarbonitrile]
